Converted amounts (≈) assume the structure as drawn. Where two headings read alike, the source gives them in different places.
How the values were obtained:
MDA-MB435 (melanoma) [1] = experiment: In vitro antiproliferative MTT assay, MDA-MB435; assay type: cell-based; conditions: Homo sapiens, MDA-MB-435
PC3M (prostate cancer) = experiment: In vitro antiproliferative MTT assay, PC3M; assay type: cell-based; conditions: for IC50: Homo sapiens, PC-3M, Table 2, MTT; for SI Lymphocyte/ PC3M: IC50 for human lymphocytes/IC50 for cancer cell line
Description: (§1) The antiproliferative activity of compounds 5a–r was determined based on an MTT assay and using CA-4 as standard against the tumor cell lines: HL-60 (human leukemia), SF-295 (human glioblastoma), MDA-MB435 (melanoma), PC3M (prostate cancer), OVCAR-8 (ovaries adenocarcinoma), NCI-H258M (pulmonary bronchio-alveolar carcinoma) and HCT-8 (adenocarcinoma ileocecal) (Table 2). To determine the selectivity index of compounds 5a–r, their antiproliferative profile was also evaluated toward human lymphocytes (Table 2).
(§2) Compounds (0.009–5 µg/mL) were tested for cytotoxic activity against selected cancer cell lines: SF-295 (glioblastoma), HCT-8 (colon), MDAMB-435 (melanoma), HL60 (leukemia), PC3M (prostate cancer), OVCAR-8 (ovaries adenocarcinoma) and NCI-H258M (pulmonary bronchio-alveolar carcinoma). All cell lines were kindly obtained from the National Cancer Institute (Bethesda, MD, USA).Tumor cell proliferation was quantified through the ability of living cells to reduce the yellow dye 3-(4,5-dimethyl-2-thiazolyl)-2,5-diphenyl-2H-tetrazolium bromide (MTT, Sigma Aldrich)) to a purple formazan product and absorbance was measured at 595 nm (DTX-880, Beckman Coulter).

[2] = test system: SF-295 (human glioblastoma); experiment: In vitro antiproliferative MTT assay, SF-295; assay type: cell-based; conditions: for IC50: Homo sapiens, SF-295, read-out: IC50 SF295; for SI Lymphocyte/ SF-295: IC50 for human lymphocytes/IC50 for cancer cell line
Description: as §1, §2

[3] = test system: HCT-8 (adenocarcinoma ileocecal); experiment: In vitro antiproliferative MTT assay, HCT-8; assay type: cell-based; conditions: for IC50: Homo sapiens, HCT-8; for SI Lymphocyte/ HCT-8: IC50 for human lymphocytes/IC50 for cancer cell line
Description: as §1, §2

[4] = Aqueous solubility assay by ultraviolet spectroscopy; assay type: physicochemical; conditions: water (saturated aqueous solution), thermodynamic from solid, 2 hours at 37°C, read-out: Aq. Solubility
Description: Ultraviolet spectroscopy was performed using Femto spectrophotometer. The wavelength used in solubility assay was determined by the -λ max characteristic of each compound. Spectra were analyzed in Femtoscan software. Mass spectrometry was obtained by positive ionization at Bruker AmaZon SL and data analyzed in Compass 1.3.SR2 software.
The solubility assay was performed considering the absorptivity of compounds in ultraviolet spectroscopy as described by Schneider and coworkers. The assay wavelength was determined by the λ max characteristic of each compound.
Saturated aqueous solutions were prepared (0.01 mg/mL) and were kept under stirring for 2 hours at 37°C. The supernatant was filtered in 0,45 µm filters and transferred to a quartz cuvette (10 mm) to spectra acquisition.
Solubility was determined by linear regression using as graph plots, solutions prepared by dilutions of the original solution in methanol. The data were obtained in triplicates and the mean values were used to the graph plots. The correlation coefficient (R^2) values were between 0.9972 and 0.9999.

HL-60 (human leukemia) = experiment: In vitro antiproliferative MTT assay, HL-60; assay type: cell-based; conditions: for IC50: Homo sapiens, HL-60; for SI Lymphocyte/ HL-60: IC50 for human lymphocytes/IC50 for cancer cell line
Description: as §1, §2

[5] = test system: OVCAR-8 (ovaries adenocarcinoma); experiment: In vitro antiproliferative MTT assay, OVCAR-8; assay type: cell-based; conditions: for IC50: Homo sapiens, OVCAR-8, Table 2, MTT; for SI Lymphocyte/ OVCAR-8: IC50 for human lymphocytes/IC50 for cancer cell line
Description: as §1, §2

human lymphocytes = experiment: In vitro antiproliferative assay, human lymphocytes; assay type: cell-based; conditions: Lymphocyte, Table 2
Description: as §1
To investigate the selective cytotoxic activity of the N-acylhydrazones derivatives (5a–r), their antiproliferative potency was also assessed toward human lymphocytes and the results were compared to the data from CA-4 ([…]). The selectivity index (SI), which was the IC50 for human lymphocytes/IC50 for cancer cell lines after treatment with CA-4 and N-acylhydrazones (5a–r), was calculated, as depicted in Table 3. […] The best comparative selectivity indices (CA-4 vs 5b) were obtained from the SF-295 (SI = 13), MDA-MB435 (SI = 42) and NCI-H258M (SI = 9.5) tumor cell lines, and the worst results were found for OVCAR-8 (SI = 0.5).

MDA-MB435 (melanoma) [6] = experiment: In vitro antiproliferative MTT assay, MDA-MB435; assay type: cell-based; conditions: IC50 for human lymphocytes/IC50 for cancer cell line
Description: as §1, §2

[7] = test system: NCI-H358M (pulmonary bronchio-alveolar carcinoma); experiment: In vitro antiproliferative MTT assay, NCI-H358M; assay type: cell-based; conditions: for SI Lymphocyte/ NCI-H358M: IC50 for human lymphocytes/IC50 for cancer cell line; for IC50: NCI-H358M, Table 2, MTT

Compound	IC50 (MDA-MB435 (melanoma) [1]; Table 2, MTT) [nM]	IC50 (PC3M (prostate cancer)) [nM]	IC50 ([2]; Table 2, MTT) [nM]	IC50 ([3]; Table 2, MTT) [nM]	solubility at 2 h [4] [µg/mL]	IC50 (HL-60 (human leukemia); Table 2, MTT) [nM]	melting point [°C]	IC50 [5] [nM]	IC50 [7] [nM]	SI Lymphocyte/ PC3M (PC3M (prostate cancer))	SI Lymphocyte/ SF-295 [2]	SI Lymphocyte/ HCT-8 [3]	SI Lymphocyte/ HL-60 (HL-60 (human leukemia))	SI Lymphocyte/ OVCAR-8 [5]	IC50 (human lymphocytes) [nM]	SI Lymphocyte/ MDA-MB345 (MDA-MB435 (melanoma) [6])	SI Lymphocyte/ NCI-H358M [7]	further results
COc1cc(C(=O)N/N=C/c2ccc3c(c2)OCO3)cc(OC)c1OC [Compound 5h, (E)-N′-(benzo[d][1], [3]dioxol-5-ylmethylene)-3,4,5-trimetoxybenzohydrazide]	110	1140	860	55800	1.34 (≈ 3.74 µM)	3070	222 to 223	1090	2150	1.14±0.06	1.47±0.02	0.02±0.002	0.43±0.01	1.16±0.04	1310	13.17±1.37	0.62±0.02	
COc1cc(/C=N/NC(=O)c2cc(OC)c(OC)c(OC)c2)cc(OC)c1OC [Compound 5i, (E)-3,4,5-trimethoxy-N′-(3,4,5-trimethoxybenzylidene)benzohydrazide]	> 25000	> 25000	> 25000	> 25000	0.0894 (≈ 0.221 µM)	> 25000	232	> 25000	> 25000	1	1	1	1	1	> 61800	1	1	
COc1cc(C(=O)N/N=C/c2ccc(Br)cc2)cc(OC)c1OC [Compound 5r, (E)-N′-(4-bromobenzylidene) - 3,4,5-trimetoxybenzohyidrazide]	18.3	12.7	59	22	0.262 (≈ 0.666 µM)	10.9		7.3	167	2.29±0.20	0.49±0.05	1.57±0.17	3.07±0.83	4.02±0.28	31.4	1.81	0.19±0.01	

Now from value to molecule, other results behind:

IC50 (MDA-MB435 (melanoma) [1]; Table 2, MTT) [nM]	IC50 (PC3M (prostate cancer)) [nM]	IC50 ([2]; Table 2, MTT) [nM]	IC50 ([3]; Table 2, MTT) [nM]	solubility at 2 h [4] [µg/mL]	IC50 (HL-60 (human leukemia); Table 2, MTT) [nM]	melting point [°C]	IC50 [5] [nM]	IC50 [7] [nM]	Compound	SI Lymphocyte/ PC3M (PC3M (prostate cancer))	SI Lymphocyte/ SF-295 [2]	SI Lymphocyte/ HCT-8 [3]	SI Lymphocyte/ HL-60 (HL-60 (human leukemia))	SI Lymphocyte/ OVCAR-8 [5]	IC50 (human lymphocytes) [nM]	SI Lymphocyte/ MDA-MB345 (MDA-MB435 (melanoma) [6])	SI Lymphocyte/ NCI-H358M [7]	further results
> 25000	> 25000	> 25000	23400	0.783 (≈ 2.05 µM)	> 25000	205 to 206	> 25000	> 25000	COc1cc(C(=O)N/N=C/c2coc3ccccc3c2=O)cc(OC)c1OC [Compound 5j, (E)-3,4,5-trimethoxy-N′-((4-oxo-4H-chromen-3-yl)methylene)benzohydrazide]	1	1	2.8	1	1	> 65400	1	1	
35	12.7	93	46	6.93 (≈ 21.1 µM)	4.8		8.2	891	COc1cc(C(=O)N/N=C/c2ccc(C)cc2)cc(OC)c1OC [Compound 5o, (E)-3,4,5-trimethoxy-N′-(4-methylbenzylidene) benzohydrazide]	0.56±0.04	0.08±0.00	0.15±0.005	1.59±0.09	0.91±0.01	7.3	0.21±0.01	0.009±0.001	
						71 to 73			COc1cc(C(=O)N(C)/N=C/c2ccccc2)cc(OC)c1OC [Compound 11, (E)-N′-benzylidene-3,4,5-trimethoxy-N-methylbenzohydrazide]									IC50 (MDA-MB435 (melanoma) [1]; Table 4): 1910 nM; IC50 ([2]; Table 4): 3800 nM; IC50 ([3]; Table 4): 540 nM; IC50 (HL-60 (human leukemia); Table 4): 30 nM

Reference: paper PMC3948622, “Docking, Synthesis and Antiproliferative Activity of N-Acylhydrazone Derivatives Designed as Combretastatin A4 Analogues” (PLoS ONE, 2014)
